Experimental data as given in ChEMBL document CHEMBL1129561 (J Med Chem, 1996).

What was measured:
[1] = target: T1, Progesterone receptor (Homo sapiens, UniProt P06401); assay: Effective concentration against human Progesterone receptor B isoform expressed in CV-1 cells; assay type: cell-based
T1 sequence (P06401 whole entry): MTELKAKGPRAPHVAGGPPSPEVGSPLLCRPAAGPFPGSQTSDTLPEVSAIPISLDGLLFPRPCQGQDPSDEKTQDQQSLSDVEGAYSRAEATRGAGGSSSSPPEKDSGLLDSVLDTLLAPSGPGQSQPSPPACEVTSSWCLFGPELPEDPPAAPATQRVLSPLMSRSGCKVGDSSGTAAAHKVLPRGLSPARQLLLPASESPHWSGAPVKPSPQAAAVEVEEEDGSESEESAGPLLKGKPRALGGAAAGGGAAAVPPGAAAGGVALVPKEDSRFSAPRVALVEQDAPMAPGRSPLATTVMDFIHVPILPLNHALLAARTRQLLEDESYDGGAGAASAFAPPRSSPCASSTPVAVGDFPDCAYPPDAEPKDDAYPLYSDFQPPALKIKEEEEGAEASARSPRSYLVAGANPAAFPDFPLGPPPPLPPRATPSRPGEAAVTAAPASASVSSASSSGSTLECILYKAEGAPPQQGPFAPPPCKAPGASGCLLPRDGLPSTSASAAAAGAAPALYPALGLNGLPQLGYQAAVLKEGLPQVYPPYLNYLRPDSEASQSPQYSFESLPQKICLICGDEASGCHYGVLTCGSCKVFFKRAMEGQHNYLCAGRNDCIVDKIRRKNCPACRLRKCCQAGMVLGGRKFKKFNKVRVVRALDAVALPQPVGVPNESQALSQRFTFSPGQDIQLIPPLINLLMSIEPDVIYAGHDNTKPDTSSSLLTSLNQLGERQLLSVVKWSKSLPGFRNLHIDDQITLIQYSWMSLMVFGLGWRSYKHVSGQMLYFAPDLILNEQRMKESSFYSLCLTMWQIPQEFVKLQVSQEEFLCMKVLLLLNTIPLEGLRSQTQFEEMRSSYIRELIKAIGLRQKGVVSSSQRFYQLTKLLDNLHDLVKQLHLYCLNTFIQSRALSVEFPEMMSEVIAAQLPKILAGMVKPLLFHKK

[2] = target: T1, Progesterone receptor
[3] = target: T2, Androgen receptor (Homo sapiens, UniProt P10275)
T2 sequence (P10275 whole entry): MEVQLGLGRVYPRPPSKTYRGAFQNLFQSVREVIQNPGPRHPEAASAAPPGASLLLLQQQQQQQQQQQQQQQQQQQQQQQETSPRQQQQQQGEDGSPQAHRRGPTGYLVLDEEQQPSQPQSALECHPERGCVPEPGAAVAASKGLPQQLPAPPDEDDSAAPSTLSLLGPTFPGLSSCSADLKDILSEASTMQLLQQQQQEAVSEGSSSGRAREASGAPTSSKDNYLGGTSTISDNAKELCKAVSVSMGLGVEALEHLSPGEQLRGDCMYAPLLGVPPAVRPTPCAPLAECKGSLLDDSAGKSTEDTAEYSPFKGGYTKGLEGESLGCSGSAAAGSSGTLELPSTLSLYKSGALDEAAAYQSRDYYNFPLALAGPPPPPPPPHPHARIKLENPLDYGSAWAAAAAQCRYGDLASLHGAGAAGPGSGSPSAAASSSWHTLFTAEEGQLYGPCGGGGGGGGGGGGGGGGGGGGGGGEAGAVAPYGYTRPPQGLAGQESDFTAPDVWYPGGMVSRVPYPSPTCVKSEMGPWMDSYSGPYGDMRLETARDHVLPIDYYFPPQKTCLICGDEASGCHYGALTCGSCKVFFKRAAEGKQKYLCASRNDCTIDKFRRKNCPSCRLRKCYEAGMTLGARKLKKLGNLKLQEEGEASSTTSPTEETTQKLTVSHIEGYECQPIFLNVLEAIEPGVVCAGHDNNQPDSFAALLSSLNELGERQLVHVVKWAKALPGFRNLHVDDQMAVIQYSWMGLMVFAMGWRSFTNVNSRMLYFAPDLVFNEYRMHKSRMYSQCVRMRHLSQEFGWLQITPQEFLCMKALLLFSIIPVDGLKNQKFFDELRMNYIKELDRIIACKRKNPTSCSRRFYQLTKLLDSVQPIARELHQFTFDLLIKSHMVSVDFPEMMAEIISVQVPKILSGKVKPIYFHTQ
Description: Binding affinity determined against human Androgen receptor

[4] = target: T3, Glucocorticoid receptor (Homo sapiens, UniProt P04150)
T3 sequence (P04150 whole entry): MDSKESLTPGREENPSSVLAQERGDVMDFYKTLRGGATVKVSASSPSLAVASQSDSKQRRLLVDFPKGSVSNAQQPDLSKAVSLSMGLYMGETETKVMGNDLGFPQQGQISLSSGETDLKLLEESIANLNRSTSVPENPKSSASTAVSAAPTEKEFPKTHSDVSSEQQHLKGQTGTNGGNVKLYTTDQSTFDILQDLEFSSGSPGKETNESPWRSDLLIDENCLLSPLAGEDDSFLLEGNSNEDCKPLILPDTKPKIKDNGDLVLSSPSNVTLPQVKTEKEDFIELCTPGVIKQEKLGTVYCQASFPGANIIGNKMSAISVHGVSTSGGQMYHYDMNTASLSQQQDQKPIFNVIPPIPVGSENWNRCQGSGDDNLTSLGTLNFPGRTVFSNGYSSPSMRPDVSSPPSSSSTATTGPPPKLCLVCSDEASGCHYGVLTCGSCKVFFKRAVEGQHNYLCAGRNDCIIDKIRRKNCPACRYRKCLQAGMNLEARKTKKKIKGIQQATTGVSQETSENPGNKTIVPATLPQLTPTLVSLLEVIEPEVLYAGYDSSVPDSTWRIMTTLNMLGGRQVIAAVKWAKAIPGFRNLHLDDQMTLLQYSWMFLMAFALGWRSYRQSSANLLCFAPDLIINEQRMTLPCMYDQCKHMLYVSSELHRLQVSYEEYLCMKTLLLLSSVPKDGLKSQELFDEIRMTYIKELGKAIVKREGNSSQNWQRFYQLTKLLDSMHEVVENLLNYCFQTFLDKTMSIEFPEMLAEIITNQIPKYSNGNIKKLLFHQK
Description: Binding affinity was determined for human glucocorticoid receptor(hGR).

[5] = target: T1, Progesterone receptor; remark: listed apart in the source
[6] = target: T4, Progesterone receptor (Homo sapiens) (UniProt P06401); conditions: CV-1
T4 sequence (whole entry): T1 sequence (P06401 whole entry)

[7] = target: T2, Androgen receptor; remark: listed apart in the source
Description: Inhibitory activity against human Androgen receptor

[8] = target: T2, Androgen receptor; remark: listed apart in the source
Description: Binding affinity for human Androgen receptor

[9] = target: T3, Glucocorticoid receptor; remark: listed apart in the source
[10] = target: T5, Mineralocorticoid receptor (Homo sapiens, UniProt P08235)
T5 sequence (P08235 whole entry): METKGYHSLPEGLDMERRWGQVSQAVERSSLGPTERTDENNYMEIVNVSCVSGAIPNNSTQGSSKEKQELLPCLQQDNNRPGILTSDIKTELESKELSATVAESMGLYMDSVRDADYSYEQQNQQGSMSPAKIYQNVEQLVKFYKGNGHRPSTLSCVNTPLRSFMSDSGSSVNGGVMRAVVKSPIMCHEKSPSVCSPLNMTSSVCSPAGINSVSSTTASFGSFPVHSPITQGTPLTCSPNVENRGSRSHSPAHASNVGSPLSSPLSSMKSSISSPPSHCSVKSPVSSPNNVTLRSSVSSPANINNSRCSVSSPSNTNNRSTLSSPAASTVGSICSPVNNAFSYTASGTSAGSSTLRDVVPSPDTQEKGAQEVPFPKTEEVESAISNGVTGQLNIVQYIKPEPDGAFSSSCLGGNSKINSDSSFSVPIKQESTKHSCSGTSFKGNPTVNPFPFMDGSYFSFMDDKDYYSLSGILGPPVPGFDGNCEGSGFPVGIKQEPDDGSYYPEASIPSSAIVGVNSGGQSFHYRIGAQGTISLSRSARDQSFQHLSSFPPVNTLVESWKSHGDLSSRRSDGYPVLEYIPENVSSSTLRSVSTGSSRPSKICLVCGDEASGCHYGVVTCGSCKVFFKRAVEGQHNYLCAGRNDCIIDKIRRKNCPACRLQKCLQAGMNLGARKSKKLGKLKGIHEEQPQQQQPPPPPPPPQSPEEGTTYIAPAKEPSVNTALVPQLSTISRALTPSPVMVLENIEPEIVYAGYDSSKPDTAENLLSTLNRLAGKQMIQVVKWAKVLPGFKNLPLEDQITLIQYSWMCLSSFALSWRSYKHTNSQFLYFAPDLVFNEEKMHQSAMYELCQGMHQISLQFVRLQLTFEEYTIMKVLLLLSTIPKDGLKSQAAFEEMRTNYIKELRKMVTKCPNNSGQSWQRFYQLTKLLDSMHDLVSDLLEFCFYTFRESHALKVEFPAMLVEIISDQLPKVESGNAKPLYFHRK

[11] = target: T6, Estrogen receptor (Homo sapiens, UniProt Q92731+P03372)
Description: Inhibitory activity against human estrogen receptor

[12] = target: T6, Estrogen receptor; remark: listed apart in the source
Description: Binding affinity for human estrogen receptor

[13] = target: T4, Progesterone receptor (Homo sapiens); conditions: CV-1; remark: listed apart in the source
[14] = target: T3, Glucocorticoid receptor; assay: Binding affinity against human glucocorticoid receptor(hGR).
[15] = target: T3, Glucocorticoid receptor; assay: Inhibitory activity against human glucocorticoid receptor (hGR)
[16] = target: T1, Progesterone receptor; remark: listed apart in the source
[17] = target: T5, Mineralocorticoid receptor; assay: Inhibitory activity against human mineralocorticoid receptor (hMR)

EC50 [1] | IC50 [2] | Ki [3] | Ki [4] | Ki [5] | Max inhibition [6] | IC50 [17] | Compound | IC50 [7] | Ki [8] | IC50 [9] | IC50 [10] | IC50 [11] | Ki [12] | Max inhibition [13] | Ki [14] | IC50 [15] | IC50 [16]
3300 nM | 1600 nM | 2320 nM | 4420 nM | 84 nM | 61% | – | C=C1C=C(C)CC(C)(C)C1C/C=C/c1cc(OC)c(Br)cc1O (stereo unspecified) | – | – | – | – | – | – | – | – | – | –
– | 210 nM | – | 1770 nM | 218 nM | 94% | 1500 nM | C=C1CCCC(C)(C)[C@H]1Cc1cc(OC)c(Br)cc1O | – | – | – | – | > 10000 nM | > 10000 nM | – | – | > 10000 nM | 741 nM

Compound | EC50 [1] | IC50 [2] | Ki [3] | Ki [4] | Ki [5] | Max inhibition [6] | IC50 [17] | IC50 [7] | Ki [8] | IC50 [9] | IC50 [10] | IC50 [11] | Ki [12] | Max inhibition [13] | Ki [14] | IC50 [15] | IC50 [16]
CN(C)c1ccc([C@H]2CC3(C)[C@@H](CC[C@]3(O)CCCO)[C@@H]3CCC4=CC(=O)CCC4=C32)cc1 (single isomer, unassigned) [ONAPRISTONE] | – | – | – | 41.8 nM | – | – | – | 269 nM | > 100 nM | 27 nM | > 1000 nM | > 1000 nM | < 20 nM | 99% | – | – | –
C=C1CC[C@@H](Br)C(C)(C)[C@H]1Cc1cc(OC)c(Br)cc1O | – | 354 nM | – | – | 490 nM | 83% | – | 449 nM | – | – | – | > 10000 nM | – | – | 3210 nM | > 10000 nM | 549 nM
